According to US10004701B2, “Methods and compositions for treating infection” (UNIVERSITY OF ROCHESTER, priority 2012, dated 2018):
Structures can show the parent of a compound that is named as a salt. Where two headings read alike, the source gives them in different places.

Tests used:
Assay in all cases: AK assay 384-well format, Prestwick library screening
P. aeruginosa = type: cell-based, Pseudomonas aeruginosa; details: 50 μM final drug concentration; for fold induction at 50 µM: Pseudomonas aeruginosa, 3 h
[1] = tested on: S. aureus strain USA300-0114; type: cell-based, Staphylococcus aureus; details: 50 μM final drug concentration; for fold induction at 50 µM: Staphylococcus aureus, USA300, 3 h
E. faecium = type: cell-based, Enterococcus faecium; details: 50 μM final drug concentration; for fold induction at 50 µM: Enterococcus faecium, 3 h
E. coli = type: cell-based, Escherichia coli; details: 50 μM final drug concentration; for fold induction at 50 µM: Escherichia coli, 3 h
K. pneumoniae = type: cell-based, Klebsiella pneumoniae; details: 50 μM final drug concentration; for fold induction at 50 µM: Klebsiella pneumoniae, 3 h
[2] = tested on: A. baumannii strain 98-37-09; type: cell-based, Acinetobacter baumannii; details: 50 μM final drug concentration; for fold induction at 50 µM: Acinetobacter baumannii, 983709, 3 h
E. cloacae = type: cell-based, Enterobacter cloacae; details: 50 μM final drug concentration; for fold induction at 50 µM: Enterobacter cloacae, 3 h
[3] = planktonic, cutoff for positive-scoring molecules 3-fold increase, read-out: AK-based Prestwick Library Screening Results, P. aeruginosa (fold increase in extracellular AK activity)
[4] = planktonic, cutoff for positive-scoring molecules 3-fold increase, read-out: AK-based Prestwick Library Screening Results, S. aureus (fold increase in extracellular AK activity)
[5] = planktonic, cutoff for positive-scoring molecules 3-fold increase, read-out: AK-based Prestwick Library Screening Results, E. faecium (fold increase in extracellular AK activity)
[6] = planktonic, cutoff for positive-scoring molecules 3-fold increase, read-out: AK-based Prestwick Library Screening Results, E. coli (fold increase in extracellular AK activity)
[7] = planktonic, cutoff for positive-scoring molecules 3-fold increase, read-out: AK-based Prestwick Library Screening Results, K. pneumoniae (fold increase in extracellular AK activity)
[8] = planktonic, cutoff for positive-scoring molecules 3-fold increase, read-out: AK-based Prestwick Library Screening Results, A. baumannii (fold increase in extracellular AK activity)
[9] = planktonic, cutoff for positive-scoring molecules 3-fold increase, read-out: AK-based Prestwick Library Screening Results, E. cloacae (fold increase in extracellular AK activity)
[10] = cutoff for positive-scoring molecules 3-fold increase
[11] = planktonic P. aeruginosa, cutoff for positive-scoring molecules 3-fold increase, read-out: AK-based Prestwick Library Screening Results, P. aeruginosa (increase in extracellular AK activity)
[12] = planktonic S. aureus, cutoff for positive-scoring molecules 3-fold increase, read-out: AK-based Prestwick Library Screening Results, S. aureus (increase in extracellular AK activity)
[13] = planktonic E. faecium, cutoff for positive-scoring molecules 3-fold increase, read-out: AK-based Prestwick Library Screening Results, E. faecium (increase in extracellular AK activity)
[14] = planktonic E. coli, cutoff for positive-scoring molecules 3-fold increase, read-out: AK-based Prestwick Library Screening Results, E. coli (increase in extracellular AK activity)
[15] = planktonic K. pneumoniae, cutoff for positive-scoring molecules 3-fold increase, read-out: AK-based Prestwick Library Screening Results, K. pneumoniae (increase in extracellular AK activity)
[16] = planktonic A. baumannii, cutoff for positive-scoring molecules 3-fold increase, read-out: AK-based Prestwick Library Screening Results, A. baumannii (increase in extracellular AK activity)
[17] = planktonic E. cloacae, cutoff for positive-scoring molecules 3-fold increase, read-out: AK-based Prestwick Library Screening Results, E. cloacae (increase in extracellular AK activity)
[18] = planktonic, cutoff for positive 3-fold increase

NS(=O)(=O)c1cc2c(cc1Cl)N=C(CSCc1ccccc1)NS2(=O)=O [Benzthiazide] was tested, and the fold induction at 50 µM (P. aeruginosa; [3]) was 0.9, the fold induction at 50 µM [1, 4] was 0.8 and the fold induction at 50 µM (E. faecium; [5]) was 1.4. The fold induction at 50 µM (E. coli; [6]) was 0.9, the fold induction at 50 µM (K. pneumoniae; [7]) was 0.8 and the fold induction at 50 µM [2, 8] was 0.9. For the same compound, the fold induction at 50 µM (E. cloacae; [9]) was 1.1.

With CN(C)CCCOc1nn(Cc2ccccc2)c2ccccc12 [Benzydamine hydrochloride] the fold induction at 50 µM (P. aeruginosa; planktonic P. aeruginosa, 384-well, cutoff for positive-scoring molecules 3-fold increase, read-out: AK-based Prestwick Library Screening Results: P. aeruginosa (increase in extracellular AK activity)) was 1.2, the fold induction at 50 µM ([1]; planktonic S. aureus, 384-well, cutoff for positive-scoring molecules 3-fold increase, read-out: AK-based Prestwick Library Screening Results: S. aureus (increase in extracellular AK activity)) was 1.1 and the fold induction at 50 µM (E. faecium; planktonic E. faecium, 384-well, cutoff for positive-scoring molecules 3-fold increase, read-out: AK-based Prestwick Library Screening Results: E. faecium (increase in extracellular AK activity)) was 1.1. It also gave a fold induction at 50 µM (E. coli; planktonic E. coli, 384-well, cutoff for positive-scoring molecules 3-fold increase, read-out: AK-based Prestwick Library Screening Results: E. coli (increase in extracellular AK activity)) of 1.3, a fold induction at 50 µM (K. pneumoniae; planktonic K. pneumoniae, 384-well, cutoff for positive-scoring molecules 3-fold increase, read-out: AK-based Prestwick Library Screening Results: K. pneumoniae (increase in extracellular AK activity)) of 1 and a fold induction at 50 µM ([2]; planktonic A. baumannii, 384-well, cutoff for positive-scoring molecules 3-fold increase, read-out: AK-based Prestwick Library Screening Results: A. baumannii (increase in extracellular AK activity)) of 1. It also gave a fold induction at 50 µM (E. cloacae; planktonic E. cloacae, 384-well, cutoff for positive-scoring molecules 3-fold increase, read-out: AK-based Prestwick Library Screening Results: E. cloacae (increase in extracellular AK activity)) of 1.2.

CC1(C)S[C@@H]2[C@H](NC(=O)Cc3ccccc3)C(=O)N2[C@H]1C(=O)O [Benzylpenicillin sodium] gave a fold induction at 50 µM (P. aeruginosa; planktonic P. aeruginosa, positive cutoff 3-fold increase, read-out: AK-based Prestwick library screening result, P. aeruginosa (fold increase in extracellular AK activity)) of 0.7, a fold induction at 50 µM ([1]; planktonic S. aureus, positive cutoff 3-fold increase, read-out: AK-based Prestwick library screening result, S. aureus (fold increase in extracellular AK activity)) of 0.8 and a fold induction at 50 µM (E. faecium; planktonic E. faecium, positive cutoff 3-fold increase, read-out: AK-based Prestwick library screening result, E. faecium (fold increase in extracellular AK activity)) of 1.7. For the same compound, the fold induction at 50 µM (E. coli; planktonic E. coli, positive cutoff 3-fold increase, read-out: AK-based Prestwick library screening result, E. coli (fold increase in extracellular AK activity)) was 11.3, the fold induction at 50 µM (K. pneumoniae; planktonic K. pneumoniae, positive cutoff 3-fold increase, read-out: AK-based Prestwick library screening result, K. pneumoniae (fold increase in extracellular AK activity)) was 0.6 and the fold induction at 50 µM ([2]; planktonic A. baumannii, positive cutoff 3-fold increase, read-out: AK-based Prestwick library screening result, A. baumannii (fold increase in extracellular AK activity)) was 2.9. For the same compound, the fold induction at 50 µM (E. cloacae; planktonic E. cloacae, positive cutoff 3-fold increase, read-out: AK-based Prestwick library screening result, E. cloacae (fold increase in extracellular AK activity)) was 1.2.

With C[N+](C)(CCOc1ccccc1)Cc1ccccc1.O=C([O-])c1cc2ccccc2cc1O [Bephenium hydroxynaphthoate] the “AK-based Prestwick Library Screening Results, P. aeruginosa (fold increase in extracellular AK activity)” value (P. aeruginosa; [10]) was 1.0, the “AK-based Prestwick Library Screening Results, S. aureus (fold increase in extracellular AK activity)” value [1, 10] was 1.2 and the “AK-based Prestwick Library Screening Results, E. faecium (fold increase in extracellular AK activity)” value (E. faecium; [10]) was 1.0. The “AK-based Prestwick Library Screening Results, E. coli (fold increase in extracellular AK activity)” value (E. coli; [10]) was 1.2, the “AK-based Prestwick Library Screening Results, K. pneumoniae (fold increase in extracellular AK activity)” value (K. pneumoniae; [10]) was 1.0 and the “AK-based Prestwick Library Screening Results, A. baumannii (fold increase in extracellular AK activity)” value [2, 10] was 0.9. The “AK-based Prestwick Library Screening Results, E. cloacae (fold increase in extracellular AK activity)” value (E. cloacae; [10]) was 2.0.

In the case of CC(C)COCC(CN(Cc1ccccc1)c1ccccc1)N1CCCC1 (stereo not shown) [Bepridil hydrochloride], the fold induction at 50 µM (P. aeruginosa; [11]) is reported as 1.2, the fold induction at 50 µM [1, 12] is reported as 1.6 and the fold induction at 50 µM (E. faecium; [13]) is reported as 1.1. The fold induction at 50 µM (E. coli; [14]) was 1.3, the fold induction at 50 µM (K. pneumoniae; [15]) was 1 and the fold induction at 50 µM [2, 16] was 1.5. For the same compound, the fold induction at 50 µM (E. cloacae; [17]) was 1.4.

For COc1ccc2cc3[n+](cc2c1OC)CCc1cc2c(cc1-3)OCO2 [Berberine chloride], the fold induction at 50 µM (P. aeruginosa; [11]) was 0.9, the fold induction at 50 µM [1, 12] was 0.7 and the fold induction at 50 µM (E. faecium; [13]) was 1. It also gave a fold induction at 50 µM (E. coli; [14]) of 1, a fold induction at 50 µM (K. pneumoniae; [15]) of 0.7 and a fold induction at 50 µM [2, 16] of 0.9. It also gave a fold induction at 50 µM (E. cloacae; [17]) of 1.1.

With COc1c(O)cc2c(c1O)[C@@H]1O[C@H](CO)[C@@H](O)[C@H](O)[C@H]1OC2=O [Bergenin monohydrate] the fold induction at 50 µM (P. aeruginosa; [3]) was 0.8, the fold induction at 50 µM [1, 4] was 0.9 and the fold induction at 50 µM (E. faecium; [5]) was 0.9. It also gave a fold induction at 50 µM (E. coli; [6]) of 0.7, a fold induction at 50 µM (K. pneumoniae; [7]) of 0.8 and a fold induction at 50 µM [2, 8] of 0.9. It also gave a fold induction at 50 µM (E. cloacae; [9]) of 1.1.

With CC[C@H](CC[C@@H](C)[C@H]1CC[C@H]2[C@@H]3CC=C4C[C@@H](O)CC[C@]4(C)[C@H]3CC[C@]12C)C(C)C [Beta-sistosterol] the “AK-based Prestwick library screening result, P. aeruginosa (fold increase in extracellular AK activity)” value (P. aeruginosa; planktonic P. aeruginosa, […]) was 0.8, the “AK-based Prestwick library screening result, S. aureus (fold increase in extracellular AK activity)” value ([1]; planktonic S. aureus, […]) was 0.7 and the “AK-based Prestwick library screening result, E. faecium (fold increase in extracellular AK activity)” value (E. faecium; planktonic E. faecium, […]) was 0.9. For the same compound, the “AK-based Prestwick library screening result, E. coli (fold increase in extracellular AK activity)” value (E. coli; planktonic E. coli, […]) was 0.8, the “AK-based Prestwick library screening result, K. pneumoniae (fold increase in extracellular AK activity)” value (K. pneumoniae; planktonic K. pneumoniae, […]) was 0.8 and the “AK-based Prestwick library screening result, A. baumannii (fold increase in extracellular AK activity)” value ([2]; planktonic A. baumannii, […]) was 0.8. The “AK-based Prestwick library screening result, E. cloacae (fold increase in extracellular AK activity)” value (E. cloacae; planktonic E. cloacae, […]) was 1.1.

CNCCc1ccccn1.CS(=O)(=O)O.CS(=O)(=O)O [Betahistine mesylate] was tested, and the “AK-based Prestwick Library Screening Results, P. aeruginosa (fold increase in extracellular AK activity)” value (P. aeruginosa; [18]) was 1.1, the “AK-based Prestwick Library Screening Results, S. aureus (fold increase in extracellular AK activity)” value [1, 18] was 0.9 and the “AK-based Prestwick Library Screening Results, E. faecium (fold increase in extracellular AK activity)” value (E. faecium; [18]) was 0.9. For the same compound, the “AK-based Prestwick Library Screening Results, E. coli (fold increase in extracellular AK activity)” value (E. coli; [18]) was 1.4, the “AK-based Prestwick Library Screening Results, K. pneumoniae (fold increase in extracellular AK activity)” value (K. pneumoniae; [18]) was 1.1 and the “AK-based Prestwick Library Screening Results, A. baumannii (fold increase in extracellular AK activity)” value [2, 18] was 1.2. The “AK-based Prestwick Library Screening Results, E. cloacae (fold increase in extracellular AK activity)” value (E. cloacae; [18]) was 1.3.

C[C@H]1C[C@H]2[C@@H]3CCC4=CC(=O)C=C[C@]4(C)[C@@]3(F)[C@@H](O)C[C@]2(C)[C@@]1(O)C(=O)CO [Betamethasone] was tested, and the fold induction at 50 µM (P. aeruginosa; [11]) was 1.1, the fold induction at 50 µM [1, 12] was 1.1 and the fold induction at 50 µM (E. faecium; [13]) was 1.1. The fold induction at 50 µM (E. coli; planktonic E. coli, […], read-out: AK-based Prestwick Library Screening Results, E. coli (increase in extracellular AK activity)) was 1.1, the fold induction at 50 µM (K. pneumoniae; [15]) was 0.9 and the fold induction at 50 µM [2, 16] was 0.9. The fold induction at 50 µM (E. cloacae; [17]) was 1.3.
